Test results taken from patent US8802433B2, “Macrophage phagocytosis-activating composition and/or composition promoting cytokine production in macrophages” (Aureo Co., Ltd., priority 2009, dated 2014).

Assays:
[1] = in vitro; assay type: cell-based; details: human
Protocol: In the following Test Examples, the human monocytic leukemia cell line THP-1 or human leukemia T cell line, Jurkat cell line was incubated at 37° C. under 5% CO2 for culture in the RPMI 1640 medium (containing 10% fetal bovine serum (FBS), 75 mg/L kanamycin, and 3.5 μL/L 2-mercaptoethanol).
In order to study the cytotoxicity of 5-FU on Jurkat cells, 5-FU was studied by MTT method. Jurkat cells prepared as 2.0×10^5 cells/mL were placed in a 96-well plate (Corning). 5-FU was added thereto so as to have final concentrations of 0, 10, 100, and 1000 μM, and the cells were then exposed thereto in a CO2 incubator at 37° C. for 24 hours. At the time point of the exposure over 23 hours, 10 μL of 3-[4,5-dimethylthiazol-2-yl]-2,5-diphenyltet-razolium bromide (MTT solution) (Wako) was added to each well, and the cells were then exposed thereto at 37° C. for 1 hour. After the exposure, the mixture was centrifuged at 1200 rpm for 5 minutes, the supernatant was discarded, 100 μL per well of DMSO was added, and the mixture was measured for absorbance at 570 nm using a microplate reader. […] Therefore, DMSO was added to dissolve the formazan precipitate, and the absorbance of the solution was measured at 570 nm. When the cells are alive, formazan is produced, and thus the solution can be measured at 570 nm.

[2] = tested on: Jurkat cells; experiment: Exposure of phosphatidylserine in apoptotic Jurkat cells (Annexin V / propidium iodide, flow cytometry); assay type: cell-based, human; details: Jurkat cells exposed to 250 μM 5-FU (250 μM or 500 μM tested), 24 hours
Protocol: Whether the cytotoxicity of 5-FU on Jurkat cells was caused by apoptosis was studied. In early apoptosis, phosphatidylserine (PS) localized on the inside of cell membrane exposes to the outside. PS is a molecule also relating to the recognition and phagocytosis of apoptotic cells by macrophages. The PS exposure is measured, whereby induction of early apoptosis can be confirmed. In late apoptosis, the cell membrane breaks, and the internal components leak out thereof. Therefore, the cells are combined with propidium iodide (PI) which is a membrane impermeable fluorescent dye, whereby the late apoptotic cells and early apoptotic cells can be clearly separated (refer to FIG. 3).

[3] = tested on: THP-1 cells differentiated into macrophage-like cells; experiment: Ability of macrophage-like cells to phagocytose polystyrene beads; assay type: cell-based, human; details: 500-fold vs 1000-fold dilution; 1 μM vs 10 μM
Protocol: THP-1 cells (refer to FIG. 1 (A)) were seeded in a 24-well plate (Becton Dickinson Labware, Franklin Lakes, N.J.) at 2×10^5 cells/mL per well, and phorbol 12-myristate 13-acetate (PMA) (Wako) was added to each well so as to have a final concentration of 160 nM, and incubated at 37° C. under 5% CO2 for 72 hours, to give macrophage-like cells (refer to FIG. 1 (B)). After incubation, the cells were washed twice with sterilized PBS in order to remove undifferentiated THP-1 cells, and a fresh medium was added thereto, and the mixture was subjected to an experiment. The THP-1 cells differentiated into macrophage-like cells were prepared in a 24-well plate by the method of Test Example 1. Thereto were each added 500-fold and 1000-fold dilutions as final concentration of an Aureobasidium culture fluid, and the mixture was incubated for 4 hours. […] Thereafter, beads with a diameter of 10 μm were added to each well at a final concentration of 2 μL/mL (Trade name “Polybeads dyed violet” manufactured by Polysciences, Inc.), and the mixture was incubated for 3 hours to allow phagocytosis of the beads by the cells. After the incubation, each well was washed 3 times with sterilized PBS in order to remove beads that were not phagocyted. […] The number of beads phagocyted by the macrophage-like cells was measured with a phase contrast microscope. […]

[4] = tested on: macrophage-like cells; experiment: TNF-α secretion from macrophage-like cells (ELISA); assay type: cell-based, human; details: added independently or in combination; ELISA of culture fluid
Excerpt: Since the increase in phagocytosis of macrophage-like cells by the Aureobasidium culture fluid or Compound 1 was inferred to be the result of activity induction in the macrophage-like cells, it was attempted to see if it is true. Specifically, regarding TNF-α, a type of cytokines released by activity induction, how much this substance was secreted into a culture fluid of the macrophage-like cells to which the Aureobasidium culture fluid, Compound 1, or the Aureobasidium culture fluid plus Compound 1 was added was measured by ELISA according to an ordinary method.

[5] = tested on: THP-1 cells differentiated into macrophage-like cells; experiment: Cytokine gene expression in macrophage-like cells (RT-PCR, agarose gel electrophoresis); assay type: cell-based, human; details: 7 hours, compared to group a (control)
Protocol: Regarding TNF-α, IL-6, IL-12B, and IL-18, cytokines released when macrophage-like cells underwent activity induction, how much mRNA for these substances expressed in the macrophage-like cells to which the Aureobasidium culture fluid, Compound 1, or the Aureobasidium culture fluid plus Compound 1 was added was measured by RT-PCR according to an ordinary method. Specifically, first, the THP-1 cells differentiated into macrophage-like cells by the method of Test Example 1 were washed twice with PBS to remove undifferentiated THP-1 cells, and then divided into 9 groups, group a, group b, group c, group d, group e, group f, group g, group h, and group i. Subsequently, the Aureobasidium culture fluid and/or Compound 1 was added to each group so as to have the final concentrations as follows, and the mixture was incubated for 7 hours. Next, each group was washed with PBS, thereafter, 1 mL of Trizol (Invitrogen) was added to each, and the mixture was well suspended and left at room temperature for 5 minutes. […] After left at room temperature for 2 minutes, the mixture was centrifuged at 12000×g at 4° C. for 10 minutes. After centrifugation, 400 μL of the upper layer was collected and transferred to a new Eppendorf tube for 1.5 mL, and 500 μL of 2-propanol (Wako) was added and stirred, and then left at room temperature for 5 minutes. […] Thereafter, the mixture was centrifuged at 12000×g at 4° C. for 10 minutes. After centrifugation, the upper layer was discarded, 75% ethanol was added to the precipitate, and the mixture was centrifuged at 12000×g at 4° C. for 10 minutes. After centrifugation, the upper layer was discarded, and the resultant was suspended in 20 μL of milliQ water, thereby collecting the total mRNA. Subsequently, using the total mRNA of each group as a template, RT-PCR was performed using TaKaRa RNA PCR Kit (AMV) Ver 3.0 (TaKaRa), to prepare a template cDNA of each sample. The RT-PCR reaction solution composition and RT-PCR reaction conditions are as described below. […] RT reaction conditions: after reaction at 42° C. for 30 minutes, respective reactions at 95° C. for 5 minutes and 5° C. for 5 minutes were performed for 1 cycle using a thermal cycler (Bio Flux). Subsequently, PCR was performed using the template cDNA of each group as a template, to amplify each cDNA of TNF-α, IL-6, IL-12B, IL-18, and glyceraldehyde-3-phosphate dehydrogenase (GAPDH). Primers, the PCR reaction solution composition, and PCR reaction conditions are as described below. PCR reaction solution composition: 5×PCR buffer 10 μL, milliQ 28.75 μL, Ex Taq 0.25 μL, sense primer 0.5 μL, antisense primer 0.5 μL, whole amount of template cDNA of each sample. PCR reaction conditions: after reaction at 94° C. for 2 minutes, with respective reactions at 94° C. for 30 seconds, 60° C. for 30 seconds, and 72° C. for 1 minute as 1 cycle, 35 cycles were performed. Thereafter, the amount of PCR reaction product was confirmed by performing agarose gel electrophoresis according to the conventional method, whereby the expression levels of mRNA for TNF-α, IL-6, IL-12B, IL-18, and glyceraldehyde-3-phosphate dehydrogenase (GAPDH) were confirmed.

| SMILES | IC50 at 24 h [1] [µM] | PS exposure (early apoptosis) [2] | working concentration giving higher phagocytosis of polystyrene beads [3] | TNF-α secreted as compared to the case of adding nothing [4] | expression level of mRNA for IL-12B ([5]; group b: Compound 1 1 μM) | expression level of mRNA for IL-18 ([5]; group b: Compound 1 1 μM) | expression level of mRNA for TNF-α ([5]; group b: Compound 1 1 μM) | expression level of mRNA for IL-6 ([5]; group c: Compound 1 10 μM) | expression level of mRNA for IL-12B ([5]; group c: Compound 1 10 μM) | expression level of mRNA for IL-18 ([5]; group c: Compound 1 10 μM) |
| --- | --- | --- | --- | --- | --- | --- | --- | --- | --- | --- |
| O=c1[nH]cc(F)c(=O)[nH]1 [Compound 5-FU, 5-fluorouracil] | 450 | much PS exposure |  |  |  |  |  |  |  |  |
| CCOCc1nc2c(N)nc3ccccc3c2n1CC(C)(C)O [Compound 1, 4-Amino-2-(ethoxymethyl)-a,a-dimethyl-1H-imidazo[4,5-c]quinoline-1-ethanol] |  |  | higher for 1 μM | larger amount | increased | increased | increased | increased | increased | increased |
